Test results taken from US6552054B1, “Chromone derivatives, process for the preparation of the same and uses thereof” (Takeda Chemical Industries, Ltd., priority 1999, dated 2003).

System: stromal cells prepared from the femur bone marrow of a normal rat
Experiment: Osteogenesis promoting effect: alkaline phosphatase activity in cultured bone marrow stromal cells
Assay type: cell-based, rat (Sprague-Dawley)
Details: test compound 10^−5 M added from 2nd day of culture, cultured additional 5 days, mean ± S.E. (n = 4)
Description: Osteogenesis promoting effect:
Using the stromal cells prepared from the femur bone marrow of a normal rat, an alkaline phosphatase activity was measured as an index of osteogenesis. Briefly, according to the method of Maniatopoulos et al. [Cell Tissue Research, volume 254, p.317 ([…])], the stromal cells were prepared from the femur bone of a Sprague-Dawley male rat, 7 weeks of age, and cultured in an α-MEM (minimum essential medium) solution containing dexamethasone (10^−7M) and β-glycerophosphoric acid (10^−2M) in order to generate calcified bony tissue. One week later, the confluent primary cells were treated with 0.25% trypsin-0.25% EDTA solution, recovered, and subclutured on a culture plate at a cell density of […], (cultured day 0). From the 2nd day of the culture, a test compound (10^−5M) was added to the above culture medium, and cultured for an additional 5 days. The cells were washed with a phosphate buffer, and after addition of 0.2% Nonidet P-40, they were homogenized and centrifuged at 3000 rpm for 10 minutes. The supernatant was measured for an alkaline phosphatase activity according to the method of Lowry et al. [Journal of Biological Chemistry, volume 207, p.19 (1954)]. Tables 1 and 2 show the measured values in terms of mean±standard error (SE). Statistical analysis was performed by means of the Student's t-test.

[1] = Table 1, control (no addition) 0.175 ± 0.009
[2] = Table 2, control (no addition) 0.180 ± 0.008

SMILES	Alkaline phosphatase activity (A405) [1] [A405]	Alkaline phosphatase activity (A405) [2] [A405]
O=C1NC(=O)C(Cc2ccc(NC(=O)c3cc(=O)c4ccccc4o3)cc2)S1 (centres unmarked) [Example no. 1, N-[4-[(2,4-dioxo-1,3-thiazolidin-5-yl)methyl]phenyl]-4-oxo-4H-1-benzopyran-2-carboxamide]	0.564 ± 0.041	
O=C1NC(=O)C(Cc2ccc(NC(=O)c3cc(=O)c4ccccc4o3)cc2)O1 (centres unmarked) [Example no. 2, N-[4-[(2,4-dioxo-1,3-oxazolidin-5-yl)methyl]phenyl]-4-oxo-4H-1-benzopyran-2-carboxamide]	0.310 ± 0.008	
O=C(Nc1ccc(CN2CCOCC2)cc1)c1cc(=O)c2ccccc2o1 [Example no. 5, N-[4-[(4-morpholinyl)methyl]phenyl]-4-oxo-4H-1-benzopyran-2-carboxamide]	0.558 ± 0.040	
O=C1NC(=O)C(Cc2ccc(NC(=O)c3cc(=O)c4c(O)cccc4o3)cc2)S1 (centres unmarked) [Example no. 16, N-[4-[(2,4-dioxo-1,3-thiazolidin-5-yl)methyl]phenyl]-5-hydroxy-4-oxo-4H-1-benzopyran-2-carboxamide]		0.720 ± 0.033
O=C1NC(=O)C(Cc2ccc(NC(=O)c3cc(=O)c4c(O)cc(O)cc4o3)cc2)S1 (centres unmarked) [Example no. 18]		0.720 ± 0.037
